# Test results from patent US20230021483A1, “[…] […] METHOD AND CLASSIFICATION OF PHARMACEUTICAL COMPONENTS BY USING TRANSCRIPTOMES” (National Institutes of Biomedical Innovation, Health and …, priority 2016, published 2023).
# Assays:
# [1] = test system: adjuvant-associated biological themes in LV, SP, LN; details: LV, ID
# How it was run: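 Per-mouse whole-organ transcriptomes; genes with eij/ei(c)>2.0 tested for theme enrichment via TargetMine (GO, KEGG, Reactome, others), Fisher's exact test, Holm-Bonferroni correction. Themes shared by all three mice kept at p<0.05, using the smallest p. Score per adjuvant-associated term = Σ−log(p) of matching themes.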
# liver (LV) = assay: Whole organ transcriptome (GeneChip microarray) of liver 6 h after adjuvant administration: sDEGs, hierarchical clustering; format: in vivo, C57BL/6 mice; details: liver; as to adjuvant group (cluster) in LV: key: G1 (interferon signaling); G2 (metabolism of lipids and lipoproteins); G3 (response to stress); G4 (response to wounding); G5 (phosphate-containing compound metabolic process); G6 (phagosome)
smiles,measurement,setting,value
"Nc1nc2c(ncn2[C@@H]2O[C@@H]3COP(=O)(O)O[C@H]4[C@@H](O)[C@H](n5cnc6c(N)ncnc65)O[C@@H]4COP(=O)(O)O[C@@H]2[C@@H]3O)c(=O)[nH]1 [cGAMP, Cyclic [G(2′,5′)pA(3′,5′)p]]",GO annotation: Cytokine-cytokine receptor interaction (Term: cytokine),[1],5.57
same,GO annotation: Cytokine-cytokine receptor interaction|Endocytosis (Term: cytokine),[1],24.6
same,GO annotation: NF-kappa B signaling pathway (Term: NF-kappa B signaling pathway),[1],4.86
same,GO annotation: TNF signaling pathway (Term: TNF signaling pathway),[1],27.6
same,GO annotation: activation of immune response (Term: immune response),[1],12.6
same,GO annotation: activation of innate immune response (Term: innate immune response),[1],16.9
same,GO annotation: acute inflammatory response (Term: inflammatory response),[1],0
same,GO annotation: adaptive immune response (Term: adaptive immune response),[1],0
same,GO annotation: adaptive immune response based on somatic recombination of immune receptors built from immunoglobulin superfamily domains (Term: adaptive immune response),[1],3.78
same,GO annotation: apoptotic process (Term: apoptosis),[1],4.46
same,GO annotation: apoptotic signaling pathway (Term: apoptosis),[1],0
same,GO annotation: cell chemotaxis (Term: chemotaxis),[1],4.4
same,GO annotation: cell death (Term: cell death),[1],10.2
same,GO annotation: cell migration (Term: migration),[1],0
same,GO annotation: cellular response to cytokine stimulus (Term: cytokine),[1],32.9
same,GO annotation: cellular response to interferon-alpha (Term: IFN alpha),[1],6.72
same,GO annotation: cellular response to stress (Term: stress),[1],0
same,GO annotation: chemokine production (Term: chemokine),[1],0
same,GO annotation: chemokine-mediated signaling pathway (Term: chemokine),[1],0
same,GO annotation: chemotaxis (Term: chemotaxis),[1],0
same,GO annotation: cytokine biosynthetic process (Term: cytokine),[1],6.84
same,GO annotation: cytokine metabolic process (Term: cytokine),[1],8.21
same,GO annotation: cytokine production (Term: cytokine),[1],17.4
same,GO annotation: cytokine secretion (Term: cytokine),[1],0
same,GO annotation: cytokine-mediated signaling pathway (Term: cytokine),[1],16.4
same,GO annotation: death (Term: cell death),[1],4.77
same,GO annotation: defense response (Term: defense response),[1],62.7
same,GO annotation: defense response to Gram-positive bacterium (Term: defense response),[1],0
same,GO annotation: defense response to bacterium (Term: defense response),[1],8.38
same,GO annotation: defense response to other organism (Term: defense response),[1],37
same,GO annotation: defense response to protozoan (Term: defense response),[1],4.37
same,GO annotation: defense response to virus (Term: defense response),[1],19.8
same,GO annotation: granulocyte chemotaxis (Term: chemotaxis),[1],0
same,GO annotation: granulocyte migration (Term: migration),[1],0
same,GO annotation: immune response (Term: immune response),[1],42.2
same,GO annotation: immune response-activating signal transduction (Term: immune response),[1],14.1
same,GO annotation: immune response-regulating signaling pathway (Term: immune response),[1],17.6
same,GO annotation: inflammatory response (Term: inflammatory response),[1],11.5
same,GO annotation: innate immune response (Term: innate immune response),[1],31.4
same,GO annotation: innate immune response-activating signal transduction (Term: innate immune response),[1],16.2
same,GO annotation: interferon-alpha production (Term: IFN alpha),[1],3.79
same,GO annotation: intrinsic apoptotic signaling pathway (Term: apoptosis),[1],0
same,GO annotation: leukocyte chemotaxis (Term: chemotaxis),[1],0
same,GO annotation: leukocyte migration (Term: migration),[1],0
same,GO annotation: leukocyte migration involved in inflammatory response (Term: inflammatory response),[1],0
same,GO annotation: lymphocyte chemotaxis (Term: chemotaxis),[1],0
same,GO annotation: lymphocyte migration (Term: migration),[1],0
same,GO annotation: myeloid leukocyte migration (Term: migration),[1],0
same,GO annotation: negative regulation of apoptotic process (Term: apoptosis),[1],0
same,GO annotation: negative regulation of cell death (Term: cell death),[1],0
same,GO annotation: negative regulation of cytokine production (Term: cytokine),[1],3.21
same,GO annotation: negative regulation of defense response (Term: defense response),[1],0
same,GO annotation: negative regulation of immune response (Term: immune response),[1],0
same,GO annotation: negative regulation of innate immune response (Term: innate immune response),[1],0
same,GO annotation: negative regulation of programmed cell death (Term: cell death),[1],0
same,GO annotation: neutrophil chemotaxis (Term: chemotaxis),[1],0
same,GO annotation: neutrophil migration (Term: migration),[1],0
same,GO annotation: positive regulation of adaptive immune response (Term: adaptive immune response),[1],0
same,GO annotation: positive regulation of apoptotic process (Term: apoptosis),[1],0
same,GO annotation: positive regulation of cell death (Term: cell death),[1],0
same,GO annotation: positive regulation of cell migration (Term: migration),[1],0
same,GO annotation: positive regulation of chemokine production (Term: chemokine),[1],0
same,GO annotation: positive regulation of chemotaxis (Term: chemotaxis),[1],0
same,GO annotation: positive regulation of cytokine biosynthetic process (Term: cytokine),[1],0
same,GO annotation: positive regulation of cytokine production (Term: cytokine),[1],11.1
same,GO annotation: positive regulation of defense response (Term: defense response),[1],24.7
same,GO annotation: positive regulation of immune response (Term: immune response),[1],15.7
same,GO annotation: positive regulation of inflammatory response (Term: inflammatory response),[1],0
same,GO annotation: positive regulation of innate immune response (Term: innate immune response),[1],17.2
same,GO annotation: positive regulation of interferon-alpha production (Term: IFN alpha),[1],4.81
same,GO annotation: positive regulation of leukocyte chemotaxis (Term: chemotaxis),[1],0
same,GO annotation: positive regulation of leukocyte migration (Term: migration),[1],0
same,GO annotation: positive regulation of programmed cell death (Term: cell death),[1],0
same,GO annotation: positive regulation of response to wounding (Term: wounding),[1],0
same,GO annotation: positive regulation of tumor necrosis factor superfamily cytokine (Term: cytokine),[1],0
same,GO annotation: production of molecular mediator of immune response (Term: immune response),[1],0
same,GO annotation: programmed cell death (Term: cell death),[1],6.49
same,GO annotation: regulation of adaptive immune response (Term: adaptive immune response),[1],0
same,GO annotation: regulation of adaptive immune response based on somatic recombination of immune receptors built from immunoglobulin superfamily domains (Term: adaptive immune response),[1],0
same,GO annotation: regulation of apoptotic process (Term: apoptosis),[1],4.63
same,GO annotation: regulation of apoptotic signaling pathway (Term: apoptosis),[1],0
same,GO annotation: regulation of cell death (Term: cell death),[1],3.82
same,GO annotation: regulation of cell migration (Term: migration),[1],0
same,GO annotation: regulation of chemokine production (Term: chemokine),[1],0
same,GO annotation: regulation of chemotaxis (Term: chemotaxis),[1],0
same,GO annotation: regulation of cytokine biosynthetic process (Term: cytokine),[1],0
same,GO annotation: regulation of cytokine production (Term: cytokine),[1],19.1
same,GO annotation: regulation of defense response (Term: defense response),[1],37.5
same,GO annotation: regulation of defense response to virus (Term: defense response),[1],0
same,GO annotation: regulation of defense response to virus by host (Term: defense response),[1],0
same,GO annotation: regulation of immune response (Term: immune response),[1],20.7
same,GO annotation: regulation of inflammatory response (Term: inflammatory response),[1],0
same,GO annotation: regulation of innate immune response (Term: innate immune response),[1],24.8
same,GO annotation: regulation of interferon-alpha production (Term: IFN alpha),[1],4.28
same,GO annotation: regulation of intrinsic apoptotic signaling pathway (Term: apoptosis),[1],0
same,GO annotation: regulation of leukocyte chemotaxis (Term: chemotaxis),[1],0
same,GO annotation: regulation of leukocyte migration (Term: migration),[1],0
same,GO annotation: regulation of programmed cell death (Term: cell death),[1],4.93
same,GO annotation: regulation of response to stress (Term: stress),[1],25.3
same,GO annotation: regulation of response to wounding (Term: wounding),[1],3.31
same,GO annotation: regulation of tumor necrosis factor superfamily cytokine production (Term: cytokine),[1],0
same,GO annotation: response to cytokine (Term: cytokine),[1],45.9
same,GO annotation: response to interferon-alpha (Term: IFN alpha),[1],14.8
same,GO annotation: response to stress (Term: stress),[1],44.6
same,GO annotation: response to wounding (Term: wounding),[1],0
same,GO annotation: taxis (Term: chemotaxis),[1],0
same,GO annotation: tumor necrosis factor superfamily cytokine production (Term: cytokine),[1],0
same,IFN beta: cellular response to interferon-beta,[1],17.6
same,IFN beta: interferon-beta production,[1],5.22
same,IFN beta: positive regulation of interferon-beta production,[1],9.2
same,IFN beta: regulation of interferon-beta production,[1],5.76
same,IFN beta: response to interferon-beta,[1],23.5
same,IFN gamma: cellular response to interferon-gamma,[1],7.44
same,IFN gamma: interferon-gamma production,[1],0
same,IFN gamma: regulation of interferon-gamma production,[1],0
same,IFN gamma: response to interferon-gamma,[1],10
same,interleukin-6: interleukin-6 production,[1],0
same,interleukin-6: positive regulation of interleukin-6 production,[1],0
same,interleukin-6: regulation of interleukin-6 production,[1],0
same,interleukin-12: interleukin-12 production,[1],0
same,interleukin-12: positive regulation of interleukin-12 production,[1],0
same,interleukin-12: regulation of interleukin-12 production,[1],0
same,adjuvant group (cluster) in LV,liver (LV); hierarchical clustering,G1
same,"Number of gene probes with statistically significant changes (sDEGs), LV, Down","liver (LV); i.d. administration, fold change <0.667, p<0.01, customized PA call=1, 6 h after adjuvant",248
same,"Number of gene probes with statistically significant changes (sDEGs), LV, Up","liver (LV); i.d. administration, fold change >1.5, p<0.01, customized PA call=1, 6 h after adjuvant",841
